This note sets out measurements from the NIST ThermoML archive (doi:10.1016/j.jct.2017.12.002).

For data set [1] the following is noted: 101.33 kPa, Liquid, Vibrating tube method.
The nature of data set [2]: refractive index (Na D-line) (dimensionless). The settings on record: 101.33 kPa, Liquid, Standard Abbe refractometry.

Molecules are shown by their SMILES. Numbers after ± are expanded uncertainties.

In general, mass density refers to the mass of a sample divided by its volume. A word on the refractive index: it is the speed of light in vacuum divided by its phase velocity in the sample. In the case of `C=CCCCC` [hex-1-ene], the mass density in data set [1] (293.15 K) is 673.227 ± 0.17 kg/m3; in data set [1] (295.15 K), 670.871 ± 0.17 kg/m3; in data set [1] (297.15 K) it was 668.986 ± 0.17 kg/m3; in data set [1] (298.15 K), 668.033 ± 0.17 kg/m3; in data set [1] (301.35 K), 664.998 ± 0.17 kg/m3. Moreover, the refractive index worked out at 1.38796 ± 0.00041 in data set [2] (293.15 K) and 1.3851 ± 0.00041 in data set [2] (298.15 K).
Regarding `CCC(C)CC` [3-methylpentane], the mass density in data set [1] (293.15 K) stood at 664.225 ± 0.17 kg/m3; in data set [1] (295.15 K), 662.39 ± 0.18 kg/m3; in data set [1] (297.15 K) it was 660.589 ± 0.17 kg/m3; in data set [1] (298.15 K), 659.736 ± 0.18 kg/m3; in data set [1] (298.6 K), 659.308 ± 0.18 kg/m3. Moreover, the refractive index in data set [2] (293.15 K) was 1.37654 ± 0.00041; in data set [2] (298.15 K) it was 1.37387 ± 0.00041.
